Assay [1] concerns radiation-induced lung fibrosis. The assay can be described thus: Mouse radiation-induced lung fibrosis model: lung volume by HRCT. In kind it is in vivo. Conditions: 14.5 Gy irradiated mice, treated 8 weeks from week 16, measured at 24 weeks; FIG. 4. As for the experimental part: The objective of this study was to compare the activity of pamrevlumab monotherapy to either pirfenidone or nintedanib alone, and to evaluate the potential for enhanced activity of the combined agents. […] In this study, mice received thoracic irradiation (RT), followed by the therapeutic administration of the agents at 16 weeks post-irradiation when lung remodeling was evident by HRCT. After 8 weeks of drug treatment, lung density and volume were assessed by HRCT, lung function was assessed by blood gas analysis, and mice were sacrificed for histologic and gene expression analysis. C57B1/6 mice were irradiated with 14.5 Gy photons; full thorax, single dose. Treatment with therapeutic agent(s) (pamrevlumab, pirfenidone, and/or nintedanib) was initiated 16 weeks post-irradiation and continued for 8 weeks. Pamrevlumab (FG) was given IP, BIW, at 40 mg/kg; pirfenidone (PF) was given PO in chow, QD, at 300 mg/kg; nintedanib (ND) was given PO in chow, QD, at 100 mg/kg. Treatment with each agent alone, with combinations of two, and with a triple combination were carried out. Controls included non-irradiated mice, mice that were irradiated and not treated, and mice that were irradiated and given human IgG. Endpoint measurements were taken at 24 weeks for HRCT (lung structure), blood gas analysis (lung function), histology and gene expression analysis. […]

Assay [2] concerns fibrosis genes in irradiated lung. As to the kind of experiment: Microarray analysis of mRNA transcripts in irradiated lung. In kind it is in vivo, mouse. As for the experimental part:
C57B1/6 mice were irradiated with 14.5 Gy photons; full thorax, single dose. Treatment with therapeutic agent(s) (pamrevlumab, pirfenidone, and/or nintedanib) was initiated 16 weeks post-irradiation and continued for 8 weeks. Pamrevlumab (FG) was given IP, BIW, at 40 mg/kg; pirfenidone (PF) was given PO in chow, QD, at 300 mg/kg; nintedanib (ND) was given PO in chow, QD, at 100 mg/kg. Treatment with each agent alone, with combinations of two, and with a triple combination were carried out. Controls included non-irradiated mice, mice that were irradiated and not treated, and mice that were irradiated and given human IgG. Endpoint measurements were taken at 24 weeks for HRCT (lung structure), blood gas analysis (lung function), histology and gene expression analysis.
Microarray analysis of mRNA transcripts of numerous genes at 24 weeks after RT were carried out by standard techniques to compare the expression profiles of irradiated and treated animals to irradiated animals that were not further treated. The results of the later group, RT (control), were used to normalize the expression data from the other groups. Briefly, RNA from 4-7 animals per condition (RT (control), RT+hIgG, RT+FG, RT+ND, RT+PF, RT+FG+ND, RT+FG+PF, RT+ND+PF, RT+FG+ND+PF). Affymetrix 430 2.0 data was used. RT induced changes (≥1.5×, p<0.05) were filtered for treatment dependent correction (>50% correction, p<0.05). 80 RT-induced and 68 RT-suppressed transcripts were normalized at least 50% by one or more treatments. The resulting list was dominated by pamrevlumab-dependent normalization. Functional analysis indicated pamrevlumab treatment preferentially normalized RT genes known to be regulated by TGFβ and TNF.

[3] abbreviates: irradiated mouse lung, 24 weeks after RT, 8 weeks treatment, RT fold change 0.4.

The source of these data is patent US20190127456A1, “METHODS OF TREATING IDIOPATHIC PULMONARY FIBROSIS” (FibroGen, Inc., priority 2017, published 2019).

As to pamrevlumab, the “radiation-induced lung volume decrease” value in assay [1] is reported as “significantly inhibited radiation-induced lung volume decrease from baseline”. The “% Normalization of gene expression, Igfbp5” value in assay [2] (irradiated mouse lung, 24 weeks after RT, 8 weeks treatment, RT fold change 0.3) is listed as 70%. In assay [2] (setting [3]), the “% Normalization of gene expression, Abca3” value was 75% and the “% Normalization of gene expression, Gdf2” value is 68%. Also, in assay [2] (irradiated mouse lung, 24 weeks after RT, 8 weeks treatment, RT fold change 0.5), the “% Normalization of gene expression, Cx3cl1” value came out at 57%. The “% Normalization of gene expression, Retnla” value in assay [2] (irradiated mouse lung, 24 weeks after RT, 8 weeks treatment, RT fold change 2.0) turned out to be 43%. The “% Normalization of gene expression, Nt5e” value in assay [2] (irradiated mouse lung, 24 weeks after RT, 8 weeks treatment, RT fold change 2.1) stood at 53%. Further, in assay [2] (irradiated mouse lung, 24 weeks after RT, 8 weeks treatment, RT fold change 2.2), the “% Normalization of gene expression, Plat” value came out at 51%. Further, the “% Normalization of gene expression, Ccr2” value in assay [2] (irradiated mouse lung, 24 weeks after RT, 8 weeks treatment, RT fold change 2.4) came to 37%. In assay [2] (irradiated mouse lung, 24 weeks after RT, 8 weeks treatment, RT fold change 2.6), the “% Normalization of gene expression, Igfbp7” value is on record as 50%. The “% Normalization of gene expression, Cdkn2a” value in assay [2] (irradiated mouse lung, 24 weeks after RT, 8 weeks treatment, RT fold change 2.7) is 35%. Also, the “% Normalization of gene expression, Apln” value in assay [2] (irradiated mouse lung, 24 weeks after RT, 8 weeks treatment, RT fold change 5.3) was 59%. Also, the “% Normalization of gene expression, Wisp1” value in assay [2] (irradiated mouse lung, 24 weeks after RT, 8 weeks treatment, RT fold change 6.9) was found to be 52%. Also, in assay [2] (irradiated mouse lung, 24 weeks after RT, 8 weeks treatment, RT fold change 11.9), the “% Normalization of gene expression, Wisp1” value is listed as 54%. The “normalization of fibrosis-related transcripts” value in assay [2] (microarray at 24 weeks after RT, monotherapies compared) is “normalized more fibrosis-related transcripts than other monotherapies”.
